Tests used:
[1] = system: mouse with cognitive impairment caused by chronic immobilization stress (CIS); test: ORT-OLT after oral administration of glutamine following cognitive impairment caused by CIS; type: in vivo; settings: 2 weeks CIS, then oral glutamine 45 mg/kg bodyweight/day for 1 week
Method: After the oral administration of glutamine following an occurrence of cognitive impairment that has been caused by chronic immobilization stress (CIS), the effect of treating cognitive impairment was examined. Two weeks after applying CIS, the cognitive ability was tested by ORT-OLT. After that, while orally administering glutamine for 1 week (45 mg glutamine/kg bodyweight/day), a change in cognitive ability was examined from Day 4 (i.e., ORT-OLT were carried out from Day 4 to Day 7).

iNOS = test: Double-IHC protein expression after CIS and glutamine supplementation: iNOS; type: in vivo, mouse; settings: microglial cells in infralimbic cortex and hippocampal CA1 region; glutamine supplementation diet vs stress group
Method: (§1) Control (CTL) is a group which received normal diet (common diet with nutritional balance) without any stress, CTL+Gln group is a normal diet group supplemented with glutamine (150 mg/kg of feed) and without any stress, STR is a normal diet group under stress, and STR+Gln group is a normal diet group supplemented with glutamine (150 mg/kg of feed) under stress. The stress group (STR) was individually brought by force to a restrainer for 2 hours every day (i.e., between 2 PM and 4 PM) so that the animals are applied with chronic immobilization stress for 15 days. To determine the specific changes in the brain tissues after glutamine supplementation, double staining was carried out with a cell marker so that the proteins related to a change in ROS/RNS content (i.e., iNOS; nNOS; and p47phox and p67phox as a subunit of NOX) with cell markers are analyzed by double-IHC (immunohistochemistry). Twenty-four hours after applying the last stress, the mouse was anesthetized with avertin, and perfused with PBS (pH 7.4) and 4% formaldehyde. After that, the brain was removed, fixed, and cut to a thickness with 40 μm. […]

normal mouse = test: Cognitive ability of normal mouse after oral administration of glutamine (Y-maze, ORT, OLT); type: in vivo
Method: To determine if there is also an effect of orally administered glutamine on improving the cognitive ability of a normal mouse, 2 hours later glutamine administration, any improvement in cognitive ability was examined. The cognitive ability was tested by using Y-maze for testing short-term memory and ORT and OLT (object location recognition test) for testing long-term memory. Y-maze: To a Y-shaped maze consisting of 3 arms that are spread at 120° angle from each other and designated as A, B, and C, respectively, a mouse was introduced. Then, the spontaneous alternation indicating an entrance into different arms, 3 times consecutively, was applied to the following Formula (4) and the calculation was made (FIG. 10A). Three consecutive spontaneous alternation=[(Number of consecutive entry into different arms)/(Total number of arm entries−2)]×100 Formula (4) ORT/OLT: ORT was carried out for 10 minutes as described above, and, 24 hours later, one of the objects was translocated to a new spot and the animal was allowed to explore again for 5 minutes (FIG. 10B).

p67phox = test: Double-IHC protein expression after CIS and glutamine supplementation: p67phox; type: in vivo, mouse; settings: microglial cells in infralimbic cortex and hippocampal CA1 region; glutamine supplementation diet vs stress group
Method: as §1

corticosterone = test: Change in plasma corticosterone level after CIS and glutamine supplementation; type: in vivo, mouse; settings: STR+Gln vs STR; glutamine 150 mg/kg of feed
Method: In the present invention, C57BL/6 male mice (7-weeks old, KOATECH, South Korea) were kept under standard conditions (i.e., temperature of 22 to 24° C., humidity of 50 to 70%, and 12-hour light/dark cycle with lighting on 6 AM), and the animals were allowed to have free access to diets and water. The animals used for the present invention were handled according to the protocol (GNU-161128-M0068) acknowledged by Gyeongsang National University Institutional Animal Care and Use Committee (GNU IACUC), which follows the guidelines of National Institutes of Health (NIH, Bethesda, MD, USA). Control (CTL) is a group which received normal diet (common diet with nutritional balance) without any stress, CTL+Gln group is a normal diet group supplemented with glutamine (150 mg/kg of feed) and without any stress, STR is a normal diet group under stress, and STR+Gln group is a normal diet group supplemented with glutamine (150 mg/kg of feed) under stress. The stress group (STR) was individually brought by force to a restrainer for 2 hours every day (i.e., between 2 PM and 4 PM) so that the animals are applied with chronic immobilization stress for 15 days.

p47phox = test: Double-IHC protein expression after CIS and glutamine supplementation: p47phox; type: in vivo, mouse; settings: microglial cells in infralimbic cortex and hippocampal CA1 region; glutamine supplementation diet vs stress group
Method: as §1

nNOS = test: Double-IHC protein expression after CIS and glutamine supplementation: nNOS; type: in vivo, mouse; settings: microglial cells in infralimbic cortex and hippocampal CA1 region; glutamine supplementation diet vs stress group
Method: as §1

[2] = oral glutamine, long-term memory, compared to the normal mouse

SMILES: NC(=O)CC[C@H](N)C(=O)O [glutamine]
- cognitive ability in OLT [1]: restored to the level of stress-free control group
- cognitive ability in ORT [1]: restored to the level of stress-free control group
- expression amount of iNOS (iNOS): statistically significant decrement
- spontaneous alternation of Y-maze test (normal mouse; 2 hours later glutamine oral administration, short-term memory): no difference
- cognitive ability in OLT (normal mouse; [2]): more enhanced cognitive ability
- cognitive ability in ORT (normal mouse; [2]): more enhanced cognitive ability
- expression amount of p67phox (p67phox): statistically significant decrement
- plasma corticosterone level (corticosterone): statistically significant decrease
- expression amount of p47phox (p47phox): statistically significant decrement
- expression amount of nNOS (nNOS): statistically significant decrement

Source: US20230310356A1, “COMPOSITION FOR PREVENTING, AMELIORATING, OR TREATING BRAIN DAMAGE AND MILD COGNITIVE IMPAIRMENT COMPRISING GLUTAMINE AS EFFECTIVE COMPONENT” (INDUSTRY-ACADEMIC COOPERATION FOUNDATION GYEONGSANG …, priority 2020, published 2023)
